# Data as given in patent US20220184020A1, “Polyphenols as Modulators of Platelet Function” (Northeastern University, priority 2019, published 2022).
# Columns and labels:
# Format in all cases: cell-based, human
# platelets [1] = assay: Platelet aggregation by turbidimetric aggregometry; conditions: PRP pre-treated with RA for 1 hour; collagen 1 μg/mL
# Description: (§1) To validate the predictive power of the developed framework, direct experimental evidence of the predicted mechanistic role of Rosmarinic acid (RA) in VD was sought. […] Therefore, whether RA influenced platelet activation in vitro was evaluated. As platelets can be stimulated through different activation pathways, RA effects can, in principle, occur in any of them. To test these different possibilities, platelets were pretreated with RA and then activated with: 1) glycoprotein VI by collagen or collagen-related peptide (Collagen/CRPXL); 2) protease-activated receptors-1,4 by thrombin receptor activator peptide-6 (TRAP-6); 3) prostanoid thromboxane receptor by the thromboxane A2 analogue (U46619); and 4) P2Y1/12 receptor stimulation by adenosine diphosphate (ADP). […] Platelet aggregation was measured by turbidimetric aggregometry. […] Platelet aggregation was monitored for 6 minutes at 37° C. with a stir speed of 1000 rpm and the maximum extend of aggregation recorded using AGGRO/LINK®8 software. In some cases, dense granule release was simultaneously recorded by supplementing samples with Chrono-Lume® (Chrono-Log®, 395) according to the manufacturer's instructions.
# platelets [2] = assay: Platelet dense granule release (Chrono-Lume); conditions: induced by CRPXL, TRAP-6 and U46619; RA pre-treatment 1 hour
# Description: as §1
# washed platelets = assay: Platelet total tyrosine phosphorylation (4G10 immunoblot); conditions: in response to CRPXL, TRAP-6 and U46619; RA-treated platelets
# Description: The molecular mechanisms involved in the functional impact of RA on platelets was clarified. The RA target FYN is a protein-tyrosine kinase and platelet activation is coordinated by several kinases that phosphorylate adaptors, enzymes, and cytoskeletal proteins downstream of platelet surface receptors. Given this connection, RA may inhibit platelets function by blocking agonist-induced protein tyrosine phosphorylation.
# Human blood collection was performed as previously described in accordance with the Declaration of Helsinki and ethics regulations with Institutional Review Board approval from Brigham and Women's Hospital (P001526). […] Citrated whole blood underwent centrifugation with a slow break (177×g, 20 minutes) and the PRP fraction was acquired for subsequent experiments. For washed platelets, PRP was incubated with 1 μM prostaglandin E1 (Sigma, P5515) and immediately underwent centrifugation with a slow break (1000×g, 5 minutes). Platelet-poor plasma was aspirated, and pellets resuspended in platelet resuspension buffer (PRB; 10 mM Hepes, 140 mM NaCl, 3 mM KCl, 0.5 mM MgCl2, 5 mM NaHCO3, 10 mM glucose, pH 7.4).
# Washed platelets were pre-treated with RA for 1 hour, followed by agonist stimulation for 10 minutes. Platelets were lysed on ice with RIPA Lysis Buffer System® (Santa Cruz®, sc-24948) and sample supernatants clarified via centrifugation (14,000 rpm, 5 min, 4° C.). […]
compound,measurement,setting,value
O=C(/C=C/c1ccc(O)c(O)c1)O[C@H](Cc1ccc(O)c(O)c1)C(=O)O [rosmarinic acid],collagen-mediated platelet aggregation,platelets [1],inhibits
same,dense granule secretion,platelets [2],impairs
same,total tyrosine phosphorylation,washed platelets,dose-dependent reduction
